From patent US12121596B2, “Near infrared fluorescent dyes, formulations and related methods” (Washington University, priority 2019, dated 2024)
Positions of bridges follow the written chain, without caps; N, C: chain ends. Non-standard residues stand in square brackets, D forms with d. Residues, ends and D or L forms follow the SMILES beside them. *: point of attachment. X1 = CC1(C)C(/C=C/C=C/C=C/C=C2/N(CCC(=O)*)c3ccc4ccccc4c3C2(C)C)=[N+](CCC(=O)[O-])c2ccc3ccccc3c21

What was measured:
[1] = Microscale thermophoresis (MST), calcium binding; settings: read-out: apparent dissociation constant (Kd), calcium
Text: Microscale thermophoresis (MST) studies biomolecular interactions in an aqueous environment without immobilization. MST exploits the directed movement of molecules along a microscopic temperature gradient. The movement rate and direction of movement depend on the species' size, charge, and solvation shell under study. Changes in this environment can change the thermophoretic movement of the species. MST can distinguish very small changes that occur, for example, when a small fluorescent molecule binds to the surface of a protein.
MST was performed using the Monolith NT.115 (Nanotemper Technologies, Munich, Germany). The appropriate agent(s) and LS301 stock samples were denatured in MST-1 buffer (50 mM Tris-HCl, pH 7.4; 150 mM NaCl; 10 mM MgCl2; 2% DMSO; 0.1% Tween-20; 4% SDS, 4 mM dithiothreitol (DTT)) at 97° C. for 10 min. Fluorescence was assessed in MST-2 buffer (50 mM Tris-HCl, pH 7.4; 150 mM NaCl; 10 mM MgCl2). The protein was prepared in MST-2 buffer, and 20 μL serial dilutions were made with protein concentration ranging from 3.05 pM to 50 nM (pANXA2) or 3.81 pM to 62.5 nM (ANXA2). All samples were loaded into NT.115 standard capillaries. […] The apparent Kd values were calculated from fragment concentration-dependent changes in normalized fluorescence (Fraction Bound) of LS301 after 5 seconds of thermophoresis based on mass action law using the MO Affinity Analysis v2.3 software.

[2] = target: ANXA2 (Homo sapiens, UniProt P07355); assay: Microscale thermophoresis (MST), ANXA2 binding; settings: read-out: apparent Kd, ANXA2
Text: Recombinant proteins and antibodies. Recombinant annexin A2, annexin A2 with glutathione-S-transferase (GST) tag, annexin A1, and annexin A3 proteins were purchased from MyBioSource, Inc. (San Diego, CA, USA). Purified ANXA2 protein and purified pANXA2 protein were gifts from Dr. Gabriel Bimme (Beth Israel Deaconess Medical Center, Boston, MA). Rabbit monoclonal anti-annexin A2 antibody (D11G2, #8235), Rabbit monoclonal anti-Rab5 (C8B1, #3547), and rabbit monoclonal anti-Rab7 (D95F2, #936 7) primary antibodies were purchased from Cell Signaling Technology, Inc. (Danvers, MA, USA). Mouse monoclonal anti-β-actin 2A3 (sc-517582), mouse monoclonal anti-pANXA2 antibody (11.Tyr 24) (sc-135752), rabbit polyclonal anti-NOS2 (C-19, sc-649), rabbit polyclonal anti-ARG1 (H-52, sc-20150) antibodies, and protein A/G agarose were purchased from Santa Cruz Biotechnology, Inc. (Dallas, TX, USA). […]
MST was performed using the Monolith NT.115 (Nanotemper Technologies, Munich, Germany). […] Fluorescence was assessed in MST-2 buffer (50 mM Tris-HCl, pH 7.4; 150 mM NaCl; 10 mM MgCl2). […] The apparent Kd values were calculated from fragment concentration-dependent changes in normalized fluorescence (Fraction Bound) of LS301 after 5 seconds of thermophoresis based on mass action law using the MO Affinity Analysis v2.3 software.

[3] = test system: lung (A549), breast (MDA-MB-231 and 4T1), and myeloid leukemia (HL60) cell lines; assay: Cellular uptake in cancer cell lines, live-cell imaging; type: cell-based; settings: A549, MDA-MB-231, 4T1, HL60
Method: In general, cultured cancer cells were grown and incubated with the indicated amount of probe in Lab-Tek 8-chambered slides for the indicated time durations. Cells were washed with PBS at selected time points and underwent conventional slide preparation, ICC if indicated, and viewing under epifluorescence or confocal. For live-cell imaging of LS301, internalization at 37° C. in human dermal fibroblasts (Coriell Cell Technologies) and tumor cells including 4T1luc, MDA-MB-231, 5TGM, A549, and HL60 (ATCC) cells were cultured in appropriate media supplemented with 10% […] and penicillin/streptomycin and incubated at 37° C. in 5% CO2 incubator. The cells were grown on Lab-Tek 8-chamber slides (Nunc Inc. Rochester, NY) in the culture medium overnight before the experiment. The compounds were dissolved in 20% DMSO in […] PBS (pH 7.4) (Sigma, St. Louis, MO) for stocking solution and mixed with culture medium to reach the final concentration. Cells were incubated with 1 μM compounds in chamber slides at different time points at 37° C. After LS301 treatment, the culture media was removed and followed by adding culture media containing SYTO 13 nuclear dye from (Thermo Fisher Scientific, Waltham, MA) for 45 minutes at 37° C. For assessing cellular colocalization of LS301 with lipid rafts, the Vybrant AlexaFluor 488 Lipid Raft Labeling Kit (Thermo Fisher Scientific, Waltham, MA, USA) was used per the manufacturer's instructions. […]. LS301 and AlexaFluor 488 fluorescence were imaged using the cypate filter set (Ex/Em 750-800 nm/818-873 nm) and fluorescein isothiocyanate (FITC) filter set (Ex/Em 460-500/510-560 nm), respectively.

[4] = test system: cells expressing wild-type ANXA2 or mutant ANXA2 (Y23A); assay: LS301 internalization with insulin in cells expressing wild-type or mutant ANXA2 (Y23A); type: cell-based
Method: For LS301 cell internalization studies involving insulin treatment, cells were grown on Lab-Tek slides overnight. HEK 293T cells (or in some cases 4T1 cells) were maintained in DMEM medium supplemented with 10% fetal bovine serum and 100 units/mL penicillin. After DNA transfection, the HEK 293TAnxa2-WT-GFP and HEK 293TAnxa2-Y23A-GFP cells were maintained in Dulbecco's Modified Eagle's medium (DMEM) medium with 500 μg/mL G418, 10% fetal bovine serum (FBS), and 100 units/mL penicillin. The medium was changed, and cells were grown in serum-starved conditions overnight. Cells were then cultivated with or without 100 nM insulin for 4 h. Then 1 μM of LS301 was added to each sample to incubated for 4 hours or 24 hours at 37° C. Cells were imaged using an FV1000 confocal microscope, and the mean fluorescence intensities (Ex/Em=488/495 nm; Ex/Em=590/617 nm; Ex/Em=780/805-830 nm) were determined using the FV1000 software.

Chain of ANXA2 (P07355 whole entry): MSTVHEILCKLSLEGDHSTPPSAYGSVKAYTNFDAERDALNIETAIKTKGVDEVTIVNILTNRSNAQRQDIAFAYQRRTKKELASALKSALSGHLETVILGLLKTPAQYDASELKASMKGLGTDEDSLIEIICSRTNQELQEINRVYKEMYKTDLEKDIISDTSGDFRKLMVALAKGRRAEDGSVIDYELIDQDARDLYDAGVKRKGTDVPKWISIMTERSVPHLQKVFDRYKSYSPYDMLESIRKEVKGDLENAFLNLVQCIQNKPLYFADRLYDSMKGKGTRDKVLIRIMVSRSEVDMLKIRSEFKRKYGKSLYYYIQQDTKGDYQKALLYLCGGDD

In the case of `CC1(C)C(/C=C/C=C/C=C/C=C2/N(CCC(=O)N[C@@H]3CSSC[C@@H](C(=O)N[C@@H](CCCCN)C(=O)O)NC(=O)[C@@H]4CCCN4C(=O)[C@H](CO)NC(=O)[C@H](CC(=O)O)NC(=O)[C@H](CCCNC(=N)N)NC(=O)CNC3=O)c3ccc4ccccc4c3C2(C)C)=[N+](CCC(=O)[O-])c2ccc3ccccc3c21` [LS301, cypate-cyclic (DCys-Gly-Arg-Asp-Ser-Pro-Cys)-Lys-OH] (X1-[dC]GRDSPCK-OH; disulfide 1-7), the Kd [1] is reported as 5.67 ± 2.4 nM, the Kd [2] is reported as 0.389 ± 0.015 nM and the “time over which maximum cellular uptake is maintained” value [3] is reported as “over 24 hours”. For the same molecule, the “time to maximum concentration of cellular uptake” value [3] was 12 h, the “cellular uptake of LS301, mutant ANXA2 (Y23A) cells” value ([4]; insulin stimulation) was “minimal LS301 uptake” and the “cellular uptake of LS301, wild-type ANXA2 cells” value ([4]; stimulation with insulin) was “increased pANXA2 expression and cellular uptake of LS301”.
